Test results as given in the NIST ThermoML archive (doi:10.1016/j.fluid.2015.07.030).

Experiment: refractive index (other wavelength) (dimensionless); xn = mol fraction of the nth substance listed
Details: 298.15 K, 95.99 kPa, Liquid, Standard Abbe refractometry

OCCOCCOCCO [triethylene glycol] + O
refractive index
Details | Wavelength=486.1 nm | Wavelength=546.1 nm | Wavelength=587.6 nm | Wavelength=589.3 nm | Wavelength=632.8 nm | Wavelength=644 nm
x2 = 0 | – | 1.45629 | 1.45447 | 1.4544 | 1.45284 | 1.45249
x2 = 0.1056 | – | 1.45488 | 1.45307 | 1.453 | 1.45145 | 1.45109
x2 = 0.2069 | – | 1.45318 | 1.45138 | 1.45132 | 1.44978 | 1.44942
x2 = 0.3104 | – | 1.44993 | 1.44814 | 1.44807 | 1.44653 | 1.44617
x2 = 0.4844 | – | 1.44606 | 1.44428 | 1.44422 | 1.44269 | 1.44234
x2 = 0.5016 | 1.44841 | 1.44506 | 1.44328 | 1.44322 | 1.44169 | 1.44134
x2 = 0.5952 | 1.44171 | 1.43842 | 1.43668 | 1.43661 | 1.4351 | 1.43475
x2 = 0.6016 | 1.44175 | 1.43845 | 1.43673 | 1.43666 | 1.43516 | 1.43481
x2 = 0.6788 | 1.43522 | 1.43197 | 1.43025 | 1.43019 | 1.4287 | 1.42835
x2 = 0.7835 | 1.42571 | 1.42254 | 1.42088 | 1.42082 | 1.41936 | 1.41901
x2 = 0.8184 | 1.42045 | 1.41732 | 1.41568 | 1.41562 | 1.41417 | 1.41382
x2 = 0.8473 | 1.41417 | 1.41108 | 1.40947 | 1.40941 | 1.40798 | 1.40763
x2 = 0.8719 | 1.40723 | 1.40421 | 1.40261 | 1.40255 | 1.40113 | 1.40079
x2 = 0.8926 | 1.3994 | 1.39645 | 1.39488 | 1.39482 | 1.39343 | 1.3931
x2 = 0.9106 | 1.39379 | 1.39086 | 1.3893 | 1.38924 | 1.38785 | 1.38752
x2 = 0.9254 | 1.3833 | 1.38042 | 1.37889 | 1.37884 | 1.37748 | 1.37714
x2 = 0.9303 | 1.38472 | 1.38187 | 1.38035 | 1.38029 | 1.37892 | 1.37859
x2 = 0.9391 | 1.38066 | 1.37781 | 1.37628 | 1.37622 | 1.37485 | 1.37452
x2 = 0.951 | 1.37385 | 1.37104 | 1.36953 | 1.36947 | 1.36812 | 1.3678
x2 = 0.9599 | 1.36797 | 1.36514 | 1.36364 | 1.36359 | 1.36225 | 1.36139
x2 = 0.9708 | 1.35998 | 1.35727 | 1.35581 | 1.35576 | 1.35444 | –
x2 = 0.979 | 1.35488 | 1.35218 | 1.35072 | 1.35066 | 1.34937 | –
x2 = 0.9867 | 1.34888 | 1.34617 | 1.34473 | 1.34467 | 1.3434 | –
x2 = 0.9936 | 1.34258 | 1.33995 | 1.33852 | 1.33847 | 1.3372 | –
